Values after ≈ are worked out from the molar mass of the structure shown.
target: Mtb Pks13-TE domain (wild-type) (Mycobacterium tuberculosis, UniProt I6X8D2); assay: biochemical; assay type: biochemical; settings: Mtb Pks13-TE domain; mean ± s.d. of triplicates; read-out: IC50
Sequence (I6X8D2 1451-1733): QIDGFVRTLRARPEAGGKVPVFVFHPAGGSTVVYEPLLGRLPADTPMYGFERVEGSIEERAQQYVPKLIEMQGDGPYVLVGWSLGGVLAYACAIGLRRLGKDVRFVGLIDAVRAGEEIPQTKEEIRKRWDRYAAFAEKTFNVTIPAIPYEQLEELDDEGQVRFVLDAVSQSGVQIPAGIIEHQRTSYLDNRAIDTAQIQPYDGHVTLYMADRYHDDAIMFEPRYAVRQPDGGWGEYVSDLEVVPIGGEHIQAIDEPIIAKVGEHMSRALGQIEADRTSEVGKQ

Row | SMILES | IC50 [µM]
1 | CCOC(=O)c1c(-c2ccc(O)cc2)oc2ccc(O)c(CN3CCCCC3)c12 [compound 22] | 0.17 ± 0.02

same assay, conditions: Pks13-TE, 20 μM 4-MUH; read-out: IC50

Row | SMILES | IC50 [µM]
2 | CCOC(=O)c1c(-c2ccc(F)cc2)oc2cc(O)cc(CCNCCN)c12 [compound 80] | > 40
3 | CNC(=O)c1c(-c2ccccc2)oc2ccc(O)c(CCN3CCC(CO)CC3)c12 [compound 153] | > 40
4 | CNC(=O)c1c(-c2ccccc2)oc2ccc(O)c(CCCNCC(C)c3ncco3)c12 (centres unmarked) [compound 196] | > 20
5 | CCOC(=O)c1c(-c2ccc(F)cc2)oc2cc(O)cc(CCN)c12 [compound 242] | > 20
6 | CCOC(=O)c1c(-c2ccccc2)oc2ccc(O)c(CCCNCc3ccoc3)c12 [compound 255] | 2.1
7 | CNC(=O)c1c(-c2ccccc2)oc2ccc(O)c(CCCN3CC(O)C(O)C3)c12 (centres unmarked) [compound 163] | > 40
8 | CCOC(=O)c1c(-c2ccccc2)oc2ccc(O)c(CCCN3CCCC3CCO)c12 (centres unmarked) [compound 170] | 4.3
9 | CCOC(=O)c1c(-c2ccc(F)cc2)oc2cc(O)cc(CCNC3CCC(O)CC3)c12 (centres unmarked) [compound 225] | > 40
10 | CNC(=O)c1c(-c2ccccc2)oc2ccc(O)c(CCN3CCNC(=O)C3)c12 [compound 139] | > 40
11 | CCOC(=O)c1c(-c2ccccc2)oc2ccc(O)c(CCCN3CCCC3CCC(=O)NC)c12 (centres unmarked) [compound 184] | > 10
12 | CCOC(=O)c1c(-c2ccccc2)oc2ccc(O)c(CCN3CCSC3C)c12 (centres unmarked) [compound 177] | 1
13 | CCOC(=O)c1c(-c2ccccc2)oc2ccc(O)c(CCCN3CC(O)C3)c12 [compound 197] | 7.5
14 | Cc1nc2c(CN3CCCC3)c(O)ccc2[nH]1 [compound 111] | 10
15 | CNC(=O)c1c(-c2ccc(F)cc2)oc2cc(O)cc(CCN[C@@H](Cc3ccco3)C(=O)O)c12 [compound 262] | > 40
16 | CCOC(=O)c1c(-c2ccc(F)cc2)oc2cc(O)cc(CCNC(CO)CO)c12 [compound 78] | 13
17 | CN(C)CCc1c(O)ccc2oc(-c3ccc(O)cc3)c(C(=O)N(C)C)c12 [compound 210] | 12
18 | CNC(=O)c1c(-c2ccccc2)oc2ccc(O)c(CCNCC3CCCO3)c12 (centres unmarked) [compound 252] | 1.6
19 | CN(C)C(=O)c1c(-c2ccc(O)cc2)oc2cc(O)cc(CCCN3CCC3)c12 [compound 208] | 4
20 | CNC(=O)c1c(-c2ccccc2)oc2ccc(O)c(CCN3CCCCC3CCO)c12 (centres unmarked) [compound 156] | > 40
21 | CCOC(=O)c1c(-c2ccccc2)oc2ccc(O)c(CCCN3CCSC3)c12 [compound 173] | 5
22 | CCOC(=O)c1c(-c2ccccc2)oc2ccc(O)c(CN3CCC(F)(F)CC3)c12 [compound 119] | 0.8
23 | CCOC(=O)c1c(-c2ccccc2)oc2ccc(O)c(CCN[C@@H](CC(N)=O)C(=O)O)c12 [compound 246] | 20
24 | CCOC(=O)c1c(-c2ccccc2)oc2ccc(O)c(CCNC3CCOCC3)c12 [compound 241] | > 20
25 | CCOC(=O)c1c(-c2ccc(O)cc2)oc2ccc(O)c(CN3CCCCC3)c12 [compound 22] | 0.19
26 | CNC(=O)c1c(-c2ccccc2)oc2ccc(O)c(CCN(C(C)C)C(C)C)c12 [compound 140] | > 40

Row | SMILES | IC50 [µM]
27 | CCOC(=O)c1c(-c2ccccc2)oc2ccc(O)c(CCNC(CO)Cc3cnc[nH]3)c12 (centres unmarked) [compound 256] | 1.5
28 | CNC(=O)c1c(-c2ccccc2)oc2ccc(O)c(CCN3CCCC(C(F)(F)F)C3)c12 (centres unmarked) [compound 233] | > 10
29 | CNC(=O)c1c(-c2ccccc2)oc2ccc(O)c(CCN[C@H](C)Cc3cnc[nH]3)c12 [compound 260] | 4
30 | CCOC(=O)c1c(-c2ccc(F)cc2)oc2cc(O)cc(CCNC(=O)C3CCCN3)c12 (centres unmarked) [compound 226] | > 40
31 | CNC(=O)c1c(-c2ccccc2)oc2ccc(O)c(CCN3CCCC(CO)C3)c12 (centres unmarked) [compound 154] | > 20
32 | CNC(=O)c1c(-c2ccccc2)oc2ccc(O)c(CCN3CCC(O)CC3)c12 [compound 152] | > 40
33 | CCOC(=O)c1c(-c2ccccc2)oc2ccc(O)c(CCC3CCNCC3)c12 [compound 176] | > 40
34 | CNC(=O)c1c(-c2ccccc2)oc2ccc(O)c(CCC3CCOC3=O)c12 (centres unmarked) [compound 240] | > 40
35 | CCOC(=O)c1c(-c2ccccc2)oc2ccc(O)c(CCN3CC(C#N)C3)c12 [compound 227] | > 20
36 | CNC(=O)c1c(-c2ccccc2)oc2ccc(O)c(CCN[C@@H](Cc3cnc[nH]3)C(=O)OC)c12 [compound 250] | 2.4
37 | CNC(=O)c1c(-c2ccccc2)oc2ccc(O)c(CCNC3CCC3)c12 [compound 147] | 3.5
38 | CNC(=O)c1c(-c2ccccc2)oc2ccc(O)c(CCN3CCN(CCO)CC3)c12 [compound 157] | > 40
39 | CNC(=O)c1c(-c2ccccc2)oc2ccc(O)c(CCCNCc3ncco3)c12 [compound 190] | > 40
40 | CNC(=O)c1c(-c2ccccc2)oc2ccc(O)c(CCN3CC(CO)(CBr)C3)c12 [compound 257] | 1.25
41 | CCOC(=O)c1c(-c2ccccc2)oc2ccc(O)c(CCCN3CCCC(CO)C3)c12 (centres unmarked) [compound 169] | > 40
42 | CCOC(=O)c1c(-c2ccccc2)oc2ccc(O)c(CCN3CCC4(CC3)COC4)c12 [compound 267] | > 40
43 | CCOC(=O)c1c(-c2ccccc2)oc2ccc(O)c(CCN3CCC(CCCCO)C3)c12 (centres unmarked) [compound 178] | 2
44 | CCOC(=O)c1c(-c2ccccc2)oc2ccc(O)c(CCCN3CCCC3C/C=C/C(=O)NC)c12 (centres unmarked) [compound 181] | 2.5
45 | CNC(=O)c1c(-c2ccccc2)oc2ccc(O)c(CCN3CCCCC3CO)c12 (centres unmarked) [compound 155] | > 40
46 | CCOC(=O)c1c(-c2ccc(F)cc2)oc2cc(O)cc(CCNC(=O)OCc3ccccc3)c12 [compound 243] | > 40
47 | CCOC(=O)c1c(-c2ccccc2)oc2ccc(O)c(CCNC(C(=O)O)C(F)(F)F)c12 (centres unmarked) [compound 247] | > 40
48 | CCOC(=O)c1c(-c2ccccc2)oc2ccc(O)c(CCCN3CCC[C@H]3C)c12 [compound 180] | 1.9
49 | CNC(=O)c1c(-c2ccccc2)oc2cc(O)cc(CN3CCC(O)CC3)c12 [compound 68] | > 20
50 | CNC(=O)c1c(-c2ccccc2)oc2ccc(O)c(CCCN3CCC3)c12 [compound 271] | 7
51 | CCOC(=O)c1c(-c2ccccc2)oc2ccc(O)c(CCCN3CC(CO)C3)c12 [compound 198] | 5

Row | SMILES | IC50 [µM]
52 | CC(C)NCCc1cc(O)cc2oc(-c3ccc(F)cc3)c(CO)c12 [compound 76] | > 20
53 | CNC(=O)c1c(-c2ccccc2)oc2ccc(O)c(CCNc3ccccc3)c12 [compound 144] | > 40
54 | CNC(=O)c1c(-c2ccccc2)oc2ccc(O)c(CCN3CCC(C(F)(F)F)CC3)c12 [compound 232] | > 20
55 | CNC(=O)c1c(-c2ccccc2)oc2ccc(O)c(CCN[C@@H](Cc3cnc[nH]3)C(=O)NC)c12 [compound 259] | 1
56 | CNC(=O)c1c(-c2ccccc2)oc2ccc(O)c(CCN3CCCCC3)c12 [compound 143] | > 20
57 | CNC(=O)c1c(-c2ccccc2)oc2ccc(O)c(CCN3CCS(=O)(=O)CC3)c12 [compound 138] | > 40
58 | CNC(=O)c1c(-c2ccccc2)oc2ccc(O)c(CCN3CCC(CCO)CC3)c12 [compound 158] | 20
59 | CNC(=O)c1c(-c2ccccc2)oc2ccc(O)c(CCN3CCC(CO)(CBr)C3)c12 (centres unmarked) [compound 258] | 2.5
60 | CNC(=O)c1c(-c2ccccc2)oc2ccc(O)c(CCNC3CCCCC3)c12 [compound 145] | 10
61 | CCOC(=O)c1c(-c2ccccc2)oc2ccc(O)c(CN3CCCCC3=O)c12 [compound 52] | > 20
62 | CCOC(=O)c1c(-c2ccccc2)oc2ccc(O)c(CCCC3CCCC3)c12 [compound 236] | > 10
63 | CCOC(=O)c1c(-c2ccccc2)oc2ccc(O)c(CCN3CC4COCC4C3)c12 (centres unmarked) [compound 266] | 10
64 | CNC(=O)c1c(-c2ccccc2)oc2ccc(O)c(CCCN3CCC4(CC3)CC(=O)C4)c12 [compound 207] | 10
65 | CCOC(=O)c1c(-c2ccc(F)cc2)oc2cc(O)cc(CCNC(=O)C(C)N)c12 (centres unmarked) [compound 81] | > 40
66 | CNC(=O)c1c(-c2ccccc2)oc2ccc(O)c(CCN3CCCCC3C(F)(F)F)c12 (centres unmarked) [compound 237] | > 20
67 | CCOC(=O)c1c(-c2ccccc2)oc2ccc(O)c(CCNC3CCOC3)c12 (centres unmarked) [compound 254] | 2.7
68 | CCOC(=O)c1c(-c2ccc(F)cc2)oc2cc(O)cc(CC[N+](C)(C)C)c12 [compound 75] | > 20
69 | Cc1nc2c(CN3CCC(C)CC3)c(O)ccc2[nH]1 [compound 9] | 10
70 | CCOC(=O)c1c(-c2ccccc2)oc2ccc(O)c(CCN3CCC(CCCC(N)=O)C3)c12 (centres unmarked) [compound 187] | 0.5
71 | CCOC(=O)c1c(-c2ccccc2)oc2ccc(O)c(CCN3CCCOC3)c12 [compound 193] | 5
72 | CCOC(=O)c1c(-c2ccccc2)oc2ccc(O)c(CCN3[C@H](C)CCC[C@@H]3C)c12 [compound 150] | > 40
73 | CCOC(=O)c1c(-c2ccc(F)cc2)oc2cc(O)cc(CCNCC(O)CO)c12 (centres unmarked) [compound 79] | > 20
74 | CNC(=O)c1c(-c2ccccc2)oc2ccc(O)c(CCCN3CCCC4(CC(=O)C4)C3)c12 [compound 194] | > 40
75 | CCOC(=O)c1c(-c2ccccc2)oc2ccc(O)c(CCN3CCC4(COC4)C3)c12 [compound 264] | 2.5

same assay, conditions: Pks13-TE; read-out: IC50 (μM), given as NB / NI

Row | SMILES | IC50 [µM]
76 | CCOC(=O)c1c(-c2ccccc2)oc2ccc(OC)c(CC3CCCCC3)c12 [compound 15] | > 20

tested on: Mtb strain mc^27000; assay: microbe, parasite or virus in culture; assay type: cell-based, Mycobacterium tuberculosis; settings: Mtb mc^27000, liquid medium, 96-well plates; read-out: MIC

Row | SMILES | MIC [µM]
77 | CCOC(=O)c1c(-c2ccccc2)oc2ccc(O)c(CCCCN3CCC3)c12 [compound 215] | <0.08
78 | CCOC(=O)c1c(-c2ccccc2)oc2ccc(O)c(CC(=O)NC3CCC3)c12 [compound 131] | 7.2 (≈ 2.83 µg/mL)

same assay, conditions: Mycobacterium tuberculosis, Mtb mc^27000, liquid medium, 96-well plates; read-out: MIC

Row | SMILES | MIC [µM]
79 | CCOC(=O)c1c(-c2ccccc2)oc2cc(Cc3ccccc3)c(O)cc12 [compound 11] | 28 (≈ 10.4 µg/mL)
80 | CCOC(=O)c1c(-c2ccccc2)oc2cc(CN3CCCCC3)cc(O)c12 [compound 36] | 40 (≈ 15.2 µg/mL)
